From patent US12643858B2 (Inipharm, Inc., priority 2020, dated 2026)

Target: T1, HSD17B13 enzyme (Homo sapiens, UniProt Q7Z5P4)
T1 construct: His; made in house; host or cells: E. coli
T1 sequence (Q7Z5P4 20-300): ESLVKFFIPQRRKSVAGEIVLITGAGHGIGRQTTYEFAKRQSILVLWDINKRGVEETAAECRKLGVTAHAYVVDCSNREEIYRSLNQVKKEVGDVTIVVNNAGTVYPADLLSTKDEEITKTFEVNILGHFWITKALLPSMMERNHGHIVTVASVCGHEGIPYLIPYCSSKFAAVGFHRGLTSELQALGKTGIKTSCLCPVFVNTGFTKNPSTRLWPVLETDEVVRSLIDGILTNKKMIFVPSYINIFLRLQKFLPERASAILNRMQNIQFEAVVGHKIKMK
Assay: NADH detection assay (fluorescence based LTB3 assay) for HSD17B13 activity
Format: biochemical
Conditions: substrate 25 μM LTB3, 3 mM NAD+, 125 nM HSD17B13 enzyme, 1 hour at 26.5° C.
Method in brief: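 E. coli-expressed His-tagged HSD17B13 (125 nM) with 25 μM LTB3 and 3 mM NAD+ in 1 M potassium phosphate pH 7.4, 1% DMSO, 1 h at 26.5 °C. NADH fluorescence (Ex 340/Em 445 nm) minus t=0 baseline and no-LTB3 controls, converted via NADH standards. IC50 from four-parameter fits over ten concentrations (30 μM-2.5 nM), duplicate runs.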

Row | Structure (SMILES) | IC50 [µM]
1 | Oc1cc(Oc2cccc(-c3cccc(Cl)c3F)n2)ccc1F [Example 86, 5-{[6-(3-chloro-2-fluorophenyl)pyridin-2-yl]oxy}-2-fluorophenol] | ≤ 5
2 | COc1cccc(-c2cccc(Oc3ccc(O)nc3)n2)c1F [Example 108, 5-{[6-(2-fluoro-3-methoxyphenyl)pyridin-2-yl]oxy}-1,2-dihydropyridin-2-one] | > 30
3 | N#Cc1ccc(-c2cccc(Oc3ccc(F)c(O)c3)n2)c(F)c1 [Example 92, 3-fluoro-4-(6-(4-fluoro-3-hydroxyphenoxy)pyridin-2-yl)benzonitrile] | > 30
4 | Oc1cccc(-c2cccc(Oc3ccc4cn[nH]c4c3)n2)c1F [Example 4, 6-((6-(2-fluoro-3-methoxyphenyl)pyridin-2-yl)oxy)-1H-indazole and 3-(6-((1H-indazol-6-yl)oxy)pyridin-2-yl)-2 fluorophenol] | ≤ 5
5 | Oc1cc(Sc2cccc(-c3cccc(O)c3F)n2)ccc1F [Example 15, 2-fluoro-3-(6-((4-fluoro-3-hydroxyphenyl)thio)pyridin-2-yl) phenol] | ≤ 5
6 | N#Cc1c(Oc2ccc(F)c(O)c2)cccc1-c1cccc(O)c1F [Example 22, 2′-fluoro-3-(4-fluoro-3-hydroxyphenoxy)-3′-hydroxy-[1,1′-biphenyl]-2-carbonitrile] | ≤ 5
7 | CN(c1ccc(F)c(O)c1)c1cccc(-c2cccc(O)c2F)c1C#N [Example 23] | > 30
8 | COc1cc(Oc2nccc(-c3cccc(O)c3F)n2)ccc1F [Example 10, 2-fluoro-3-[2-(4-fluoro-3-methoxyphenoxy)pyrimidin-4-yl]phenol] | > 30
9 | COc1cccc(F)c1-c1cccc(Oc2ccc(F)c(O)c2)n1 [Example 74, 2-fluoro-5-((6-(2-fluoro-6-methoxyphenyl)pyridin-2-yl)oxy)phenol] | > 30
10 | Nc1nc2cc(-c3cccc(Oc4ccc(F)c(O)c4)n3)ccc2s1 [Example 47, 5-((6-(2-aminobenzo[d]thiazol-5-yl)pyridin-2-yl)oxy)-2-fluorophenol] | ≤ 5
11 | Oc1cc(Oc2cccc(-c3cc(F)cc(F)c3)n2)ccc1F [Example 89, 5-{[6-(3,5-difluorophenyl)pyridin-2-yl]oxy}-2-fluorophenol] | ≤ 5
12 | Oc1cc(Oc2cccc(-c3cc4ccccc4s3)n2)ccc1F [Example 9, 5-((6-(benzo[b]thiophen-2-yl)pyridin-2-yl)oxy)-2-fluorophenol] | 10 to 30
13 | COc1cccc(-c2cccc(Oc3ccc4c(c3)NC(=O)C4)n2)c1F [Example 6, 6-{[6-(2-fluoro-3-methoxyphenyl)pyridin-2-yl]oxy}-2,3-dihydro-1H-indol-2-one] | > 30
14 | O=S(=O)(Nc1cccc(-c2cccc(Oc3ccc(F)c(O)c3)n2)c1F)C1CC1 [Example 114, N-{2-fluoro-3-[6-(4-fluoro-3-hydroxyphenoxy)pyridin-2-yl]phenyl} cyclopropanesulfonamide] | 5 to 10

Target: T1, HSD17B13 enzyme
Assay: Estrone detection assay (LC/MS, estradiol to estrone conversion) for HSD17B13 activity
Format: biochemical
Conditions: substrate 4 μM Estradiol, 6 mM NAD+, 30 nM HSD17B13 enzyme, 2 hours at 26.5° C.
Protocol: Example B: Estrone Detection Assay for Evaluation of HSD17ß13 Activity and Identification of Inhibitors
The liquid chromatography/mass spectrometry (LC/MS) estrone detection assay monitors the conversion of estradiol to estrone by HSD17B13. This assay was undertaken in a 96wp format (Eppendorf deep well Plate 96/500) in an 80 μl reaction volume containing: 4 μM of Estradiol (E2; Cayman; Ser. No. 10/006,315), 6 mM NAD+(Sigma; #N0623) and 30 nM HSD17B13 enzyme (in-house; E. coli expressed His-tagged, purified, soluble protein) in a reaction containing […] potassium phosphate buffer pH 7.4, with 0.5% vehicle (DMSO). Reactions were incubated for 2 hours at 26.5° C., and estradiol (E2) conversion to estrone (E1) was quantitated by LC-MS/MS based analyte detection for both E2 and E1 using LCMS grade reagents.
Reactions were terminated by the addition of two volumes of acetonitrile (MeCN; LCMS grade; CAS #75/05/8) containing deuterated (D4)-E1 used as internal standard (Clear Synth; #CS-T-54273; 500 ng/mL final concentration). Samples were applied to pre-prepared Bond Elut-C18 extraction cartridges (3 mL; Agilent; Ser. No. 12/102,028), washed and eluted in MeCN. Eluates were dried under nitrogen and re-suspended in 60% methanol (LCMS grade methanol; CAS #67/56/1) before submission for analysis. Aqueous linearity for E2 and E1 were included for quantification.
Analysis of samples was undertaken on a XBridge BEH C18 column (Waters; #186003033) using 0.1% Diethyl Amine in MeCN (mobile phase A; DEA CAS #109-89-7) and 0.1% Diethyl Amine in milli-Q water (mobile phase B) in a 3 min gradient allowing 25% B. Analytes were detected in negative mode using MRM analysis, with E2 having a RT of 1.85 min and E1 having a RT of 2 min. Activity of the enzyme, in the absence of NAD+, was used to evaluate specificity of conversion. Enzyme activity in the presence of test samples was expressed as a percentage of the uninhibited enzyme activity, and plotted versus inhibitor concentration. Non-linear regression was performed using a four-parameter logistic model and GraphPad Prism software (GraphPad Software, La Jolla, CA). All assessments were undertaken in duplicate evaluations and pooled during extraction process and subsequently injected as duplicates for LC-MS/MS analysis.

Row | Structure (SMILES) | IC50 [µM]
15 | Oc1c(F)ccc(Oc2ccnc(-c3ccc(N4CCOCC4)cc3)n2)c1F [Example 115, 2,6-difluoro-3-((2-(4-morpholinophenyl)pyrimidin-4-yl)oxy)phenol] | ≤ 0.1
16 | Oc1c(Cl)ccc(Oc2ccnc(-c3ccc(N4CCOCC4)cc3)n2)c1Cl [Example 118, 2,6-dichloro-3-((2-(4-morpholinophenyl)pyrimidin-4-yl)oxy)pheno] | 0.5 to 1
17 | Oc1c(Cl)ccc(Oc2ccnc(-c3ccc(N4CCOCC4)cc3)n2)c1F [Example 117, 6-chloro-2-fluoro-3-((2-(4-morpholinophenyl)pyrimidin-4-yl)oxy)phenol] | 0.1 to 0.5
18 | O=S1(=O)CCN(c2ccc(-c3nccc(Oc4ccc(F)c(O)c4F)n3)cc2)CC1 [Example 116, 4-(4-(4-(2,4-difluoro-3-hydroxyphenoxy)pyrimidin-2-yl)phenyl) thiomorpholine 1,1-dioxide] | ≤ 0.1
